# Reference: the supplement of paper PMC10307832
# Columns and labels:
# Assay in all cases: relative viability (nuclei count vs DMSO), 5 days (fraction); higher = more cells survive
# [1] = test system: LCLC-103H
# Outline: (§1)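 Relative viability divides the nuclei count in treated wells by that in vehicle wells. Lung cancer cell lines were seeded in 1536-well plates, dosed by pin tool the next day, and fixed and stained after 5 days in one step with final 0.05% Triton X-100, 1% formaldehyde and 1 ug/ml Hoechst. Dosing was a single drug or a fixed anchor-drug dose plus five library-drug doses (not always all listed) in √10 steps, and values are medians of duplicate plates imaged at 4×.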
# [2] = test system: NCI-H2023
# Outline: as §1
# [3] = test system: NCI-H647
# Outline: as §1
# [4] = test system: NCI-H2087
# Outline: as §1
# [5] = test system: NCI-H1993
# Outline: as §1
# [6] = test system: NCI-H650
# Outline: as §1
# [7] = test system: LOU-NH91
# Outline: as §1
# [8] = test system: EMC-BAC-2
# Outline: as §1
# [9] = test system: HCC-44
# Outline: as §1
# [10] = test system: NCI-H23
# Outline: as §1
# [11] = test system: HARA
# Outline: as §1
# [12] = test system: BEN
# Outline: as §1
# [13] = test system: NCI-H2126
# Outline: as §1
# [14] = test system: 201T
# Outline: as §1
# [15] = test system: NCI-H838
# Outline: as §1
# [16] = test system: NCI-H596
# Outline: as §1
# [17] = test system: NCI-H727
# Outline: as §1
# [18] = test system: NCI-H1666
# Outline: as §1
# [19] = test system: NCI-H2347
# Outline: as §1
# [20] = test system: NCI-H441
# Outline: as §1
# [21] = test system: NCI-H2009
# Outline: as §1
# [22] = test system: NCI-H3122
# Outline: as §1
smiles,measurement,setting,value
Oc1nc(-c2ccc(C(F)(F)F)cc2)nc2c1CSCC2 [XAV939] + CC(C)C[C@H](NC(=O)[C@H](Cc1ccccc1)NC(=O)c1cnccn1)B(O)O [Bortezomib] (partner 0.002 µM),relative viability,[1]; first compound 0.08 µM,0.936
same,relative viability,[1]; first compound 0.253 µM,1.11
same,relative viability,[1]; first compound 0.8 µM,0.861
same,relative viability,[1]; first compound 2.53 µM,1.01
same,relative viability,[2]; first compound 0.08 µM,1.11
same,relative viability,[2]; first compound 0.253 µM,0.785
same,relative viability,[2]; first compound 0.8 µM,0.833
same,relative viability,[2]; first compound 2.53 µM,0.792
same,relative viability,[3]; first compound 0.08 µM,1.16
same,relative viability,[3]; first compound 0.253 µM,0.747
same,relative viability,[3]; first compound 0.8 µM,0.81
same,relative viability,[3]; first compound 2.53 µM,0.988
same,relative viability,[4]; first compound 0.08 µM,0.864
same,relative viability,[4]; first compound 0.253 µM,0.595
same,relative viability,[4]; first compound 0.8 µM,0.938
same,relative viability,[4]; first compound 2.53 µM,0.763
same,relative viability,[5]; first compound 0.8 µM,0.972
same,relative viability,[5]; first compound 2.53 µM,0.891
same,relative viability,[6]; first compound 0.08 µM,0.838
same,relative viability,[6]; first compound 0.253 µM,0.882
same,relative viability,[6]; first compound 0.8 µM,0.854
same,relative viability,[6]; first compound 2.53 µM,0.703
same,relative viability,[7]; first compound 0.08 µM,0.438
same,relative viability,[7]; first compound 0.253 µM,0.464
same,relative viability,[7]; first compound 0.8 µM,0.49
same,relative viability,[7]; first compound 2.53 µM,0.415
same,relative viability,[8]; first compound 0.08 µM,1.11
same,relative viability,[8]; first compound 0.253 µM,0.946
same,relative viability,[8]; first compound 0.8 µM,0.997
same,relative viability,[8]; first compound 2.53 µM,0.636
same,relative viability,[9]; first compound 0.08 µM,0.909
same,relative viability,[9]; first compound 0.253 µM,0.809
same,relative viability,[9]; first compound 0.8 µM,0.854
same,relative viability,[9]; first compound 2.53 µM,0.824
same,relative viability,[10]; first compound 0.08 µM,0.992
same,relative viability,[10]; first compound 0.253 µM,1.12
same,relative viability,[10]; first compound 0.8 µM,0.989
same,relative viability,[10]; first compound 2.53 µM,0.886
same,relative viability,[11]; first compound 0.08 µM,1.35
same,relative viability,[11]; first compound 0.253 µM,1
same,relative viability,[11]; first compound 0.8 µM,1.12
same,relative viability,[11]; first compound 2.53 µM,1
same,relative viability,[12]; first compound 0.08 µM,0.709
same,relative viability,[12]; first compound 0.253 µM,0.733
same,relative viability,[12]; first compound 0.8 µM,0.559
same,relative viability,[13]; first compound 0.08 µM,1.18
same,relative viability,[13]; first compound 0.253 µM,0.984
same,relative viability,[13]; first compound 0.8 µM,1.08
same,relative viability,[13]; first compound 2.53 µM,1.02
same,relative viability,[14]; first compound 0.08 µM,1.12
same,relative viability,[14]; first compound 0.253 µM,0.981
same,relative viability,[14]; first compound 0.8 µM,1.08
same,relative viability,[14]; first compound 2.53 µM,0.979
same,relative viability,[15]; first compound 0.08 µM,0.852
same,relative viability,[15]; first compound 0.253 µM,0.683
same,relative viability,[15]; first compound 0.8 µM,0.893
same,relative viability,[15]; first compound 2.53 µM,0.527
same,relative viability,[16]; first compound 0.08 µM,1.11
same,relative viability,[16]; first compound 0.253 µM,1.1
same,relative viability,[16]; first compound 0.8 µM,1.09
same,relative viability,[16]; first compound 2.53 µM,1.3
same,relative viability,[17]; first compound 0.08 µM,1.05
same,relative viability,[17]; first compound 0.253 µM,0.589
same,relative viability,[17]; first compound 0.8 µM,0.803
same,relative viability,[17]; first compound 2.53 µM,0.957
same,relative viability,[18]; first compound 0.08 µM,0.813
same,relative viability,[18]; first compound 0.253 µM,0.611
same,relative viability,[18]; first compound 0.8 µM,0.422
same,relative viability,[18]; first compound 2.53 µM,0.5
same,relative viability,[19]; first compound 0.08 µM,1.27
same,relative viability,[19]; first compound 0.253 µM,0.75
same,relative viability,[19]; first compound 0.8 µM,1.02
same,relative viability,[19]; first compound 2.53 µM,0.837
same,relative viability,[20]; first compound 0.08 µM,0.45
same,relative viability,[20]; first compound 0.253 µM,0.401
same,relative viability,[20]; first compound 0.8 µM,0.572
same,relative viability,[20]; first compound 2.53 µM,0.681
same,relative viability,[21]; first compound 0.08 µM,1.17
same,relative viability,[21]; first compound 0.253 µM,0.901
same,relative viability,[21]; first compound 0.8 µM,0.936
same,relative viability,[21]; first compound 2.53 µM,0.915
same,relative viability,[22]; first compound 0.08 µM,1.09
same,relative viability,[22]; first compound 0.253 µM,1.01
same,relative viability,[22]; first compound 0.8 µM,1.03
same,relative viability,[22]; first compound 2.53 µM,0.944
